In brackets after ≈: the same amount, converted by molar mass.
How the values were obtained:
E. coli ATCC 25922 = test: Antibacterial activity, minimum inhibitory concentration (MIC) in vitro, broth dilution; assay type: cell-based; details: Escherichia coli, ATCC25922, 5×10^5 cfu/mL, 35 °C, 18-24 hours
Summary of the method: (§1)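 Broth microdilution per CLSI in CAMHB, inoculum 5×10^5 cfu/mL. Compound added from 100× DMSO working stocks across 11 two-fold dilutions, final 64 to 0.06 μg/mL. Incubated 18-24 h at 35 °C.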

K. pneumoniae ATCC13883 = test: as above; assay type: cell-based; details: Klebsiella pneumoniae, 5×10^5 cfu/mL, 35 °C, 18-24 hours
Summary of the method: as §1

K. pneumoniae ATCC51504 = test: as above; assay type: cell-based; details: Klebsiella pneumoniae, 5×10^5 cfu/mL, 35 °C, 18-24 hours
Summary of the method: as §1

[1] = molecular target: T1, recombinant Pseudomonas aeruginosa LpxC (Pseudomonas aeruginosa, UniProt P47205); test: Inhibition of enzymatic activity of recombinant Pseudomonas aeruginosa LpxC in vitro; assay type: biochemical; details: 5 nM LpxC; substrate UDP-3-O—(R-3-hydroxydecanoyl)-GlcNAc; 25 °C, 120 minutes; fluorescamine readout
T1 construct: purchased Signalway Antibody AP74647-2
T1 sequence (P47205 1-303): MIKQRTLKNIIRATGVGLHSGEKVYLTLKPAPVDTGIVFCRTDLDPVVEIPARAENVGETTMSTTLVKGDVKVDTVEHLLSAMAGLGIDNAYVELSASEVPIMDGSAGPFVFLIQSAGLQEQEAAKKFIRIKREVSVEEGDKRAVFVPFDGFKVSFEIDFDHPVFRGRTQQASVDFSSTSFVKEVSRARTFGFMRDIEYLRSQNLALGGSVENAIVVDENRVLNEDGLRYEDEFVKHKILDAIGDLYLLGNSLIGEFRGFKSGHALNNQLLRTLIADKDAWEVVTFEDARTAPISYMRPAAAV
Summary of the method: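 LpxC (5 nM final) was incubated with compound (8-point 4-fold series, 0.61–10000 nM) and […] UDP-3-O-(R-3-hydroxydecanoyl)-GlcNAc for 120 min at 25 °C. Product was detected with fluorescamine (Ex 390/Em 495 nm) after a pH 8.0 phosphate stop. IC50 was fitted by nonlinear regression against 0.1% DMSO control.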

Compound	MIC (E. coli ATCC 25922) [µg/mL]	MIC (K. pneumoniae ATCC13883) [µg/mL]	MIC (K. pneumoniae ATCC51504) [µg/mL]	IC50 [1] [nM]
C[C@H](O)c1nccn1Cc1cc(-c2ccc(C#CC3CC4(C3)CN(CCn3cncn3)C4)cc2)on1 [Example 53, (S)-1-(1-((5-(4-((2-(2-(1H-1,2,4-triazol-1-yl)ethyl)-2-azaspiro[3.3]heptan-6-yl)ethynyl)phenyl)isoxazol-3-yl)methyl)-1H-imidazol-2-yl)ethan-1-ol]	2 (≈ 4.14 µM)	8 (≈ 16.5 µM)	2 (≈ 4.14 µM)	–
C[C@H](O)c1nccn1Cc1cc(-c2ccc(C#CC3CC4(C3)CN(Cc3ncco3)C4)cc2)on1 [Example 52, (S)-1-(1-((5-(4-((2-(oxazol-2-ylmethyl)-2-azaspiro[3.3]heptan-6-yl)ethynyl)phenyl)isoxazol-3-yl)methyl)-1H-imidazol-2-yl)ethan-1-ol]	1 (≈ 2.13 µM)	2 (≈ 4.26 µM)	1 (≈ 2.13 µM)	13.9
C[C@H](O)c1nccn1Cc1cc(-c2ccc(C#CC3CC4(CCN(Cc5ncc[nH]5)CC4)C3)cc2)on1 [Example 27, (S)-1-(1-((5-(4-((7-((1H-imidazol-2-yl)methyl)-7-azaspiro[3.5]nonan-2-yl)ethynyl)phenyl)isoxazol-3-yl)methyl)-1H-imidazol-2-yl)ethan-1-ol]	2 (≈ 4.03 µM)	4 (≈ 8.05 µM)	–	6.08
C[C@H](O)c1nccn1Cc1cc(-c2ccc(C#CC3CC4(C3)CN(C3CC(C#N)C3)C4)cc2)on1 (stereo partly drawn) [Example 49, (S)-3-(6-((4-(3-((2-(1-hydroxyethyl)-1H-imidazol-1-yl)methyl)isoxazol-5-yl)phenyl)ethynyl)-2-azaspiro[3.3]heptan-2-yl)cyclobutane-1-carbonitrile]	1 (≈ 2.14 µM)	2 (≈ 4.28 µM)	–	22.6
CNC(=O)N1CC2(CC(C#Cc3ccc(-c4cc(Cn5ccnc5[C@H](C)O)no4)cc3)C2)C1 [Example 47, (S)-6-((4-(3-((2-(1-hydroxyethyl)-1H-imidazol-1-yl)methyl)isoxazol-5-yl)phenyl)ethynyl)-N-methyl-2-azaspiro[3.3]heptane-2-carboxamide]	2 (≈ 4.49 µM)	2 (≈ 4.49 µM)	–	13.1
C[C@H](O)c1nccn1Cc1cc(-c2ccc(C#CC3CC4(CCN(C=O)C4)C3)cc2)on1 (stereo partly drawn) [Example 23, (S)-2-((4-(3-((2-(1-hydroxyethyl)-1H-imidazol-1-yl)methyl)isoxazol-5-yl)phenyl)ethynyl)-6-azaspiro[3.4]octane-6-carbaldehyde]	2 (≈ 4.65 µM)	4 (≈ 9.29 µM)	–	6.36
